# Assay results from US20150291625A1 (PFIZER INC., priority 2012, published 2015).
# Values joined by “and” are separate entries in the source; they are usually repeats but may differ in a detail not shown here. Identical values can stand only once. Counter-ions that a name gives are not always drawn. Like-named read-outs stand apart in the source and are kept apart here.
# Tests used:
# D1 [1] = molecular target: T1, D1 (Homo sapiens, UniProt P21728); assay: D1 cAMP HTRF assay (HEK293T/hD1#1 stable cell line); format: cell-based; parameters: expressed in transfected cells
# Outline: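 Cells from a stable human D1 HEK293T line in PBS/0.5 μM IBMX were incubated with compound for 30 min at room temperature, and cAMP was then detected by competitive HTRF (1 h, room temperature). A cAMP standard curve converted ratios to cAMP, giving ratio-based and cAMP-based EC50 values.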
# D1 [2] = molecular target: T1, D1; assay: Human D1 receptor binding assay ([3H]-SCH23390 competition)
# [3] = Human D1 Receptor Binding, Ki (nM), Geometric mean of 2-4 determinations, a: >=5 determinations, d: single determination
# [4] = read-out: Human D1 Receptor Binding, Ki (nM), Geometric mean of 2-4 determinations, a: >=5 determinations, d: single determination
# T1 sequence (P21728 whole entry): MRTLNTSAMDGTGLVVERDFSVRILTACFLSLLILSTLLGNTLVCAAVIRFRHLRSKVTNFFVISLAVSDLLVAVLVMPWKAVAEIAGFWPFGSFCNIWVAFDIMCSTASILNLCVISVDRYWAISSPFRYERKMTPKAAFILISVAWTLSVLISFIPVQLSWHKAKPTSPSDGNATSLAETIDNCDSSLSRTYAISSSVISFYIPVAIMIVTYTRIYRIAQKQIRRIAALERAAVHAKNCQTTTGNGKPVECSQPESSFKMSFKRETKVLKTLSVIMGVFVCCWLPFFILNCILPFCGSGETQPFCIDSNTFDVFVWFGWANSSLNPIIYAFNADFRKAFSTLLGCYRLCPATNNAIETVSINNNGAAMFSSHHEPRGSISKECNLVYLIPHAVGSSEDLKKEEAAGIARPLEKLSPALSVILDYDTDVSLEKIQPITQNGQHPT
SMILES,EC50 (D1 [1]),Ki (D1 [2]; [3]) [nM],Ki (D1 [2]; [4]) [nM]
"Cc1ccc2nccn2c1-c1ccc(Oc2nccc3occc23)cc1O [Example 153, 5-(furo[3,2-c]pyridin-4-yloxy)-2-(6-methylimidazo[1,2-a]pyridin-5-yl)phenol]",51.8 nM,5.99,–
"Cc1cc(Oc2nccc3occc23)ccc1-c1cnncc1C [Example 154, 4-[3-methyl-4-(5-methylpyridazin-4-yl)phenoxy]furo[3,2-c]pyridine]",2160 nM,402,–
"CCOc1nncc(C)c1-c1ccc(Oc2nccc3occc23)cc1C [Example 157, 4-[4-(3-ethoxy-5-methylpyridazin-4-yl)-3-methylphenoxy]furo[3,2-c]pyridine]",3520 nM,354,–
"Cc1ncnc(C)c1-c1ccc(Oc2nccc3occc23)c2cccnc12 [Example 158, 8-(4,6-dimethylpyrimidin-5-yl)-5-(furo[3,2-c]pyridin-4-yloxy)quinoline]",2690 nM,280,–
"Cc1cc(Oc2nccc3occc23)ccc1-c1c(C)nn(C)c(=O)c1C [Example 159, 5-[4-(furo[3,2-c]pyridin-4-yloxy)-2-methylphenyl]-2,4,6-trimethylpyridazin-3(2H)-one]",212 nM,11.6,–
"Cc1n[nH]c(=O)c(C)c1-c1ccc(Oc2nccc3occc23)cc1Cl [Example 160, 5-[2-chloro-4-(furo[3,2-c]pyridin-4-yloxy)phenyl]-4,6-dimethylpyridazin-3(2H)-one]",13 nM,5.24,–
"Cc1ccc2nccn2c1-c1ccc(Oc2nccc3occc23)cc1 [Example 161, 4-[4-(6-methylimidazo[1,2-a]pyridin-5-yl)phenoxy]furo[3,2-c]pyridine]",94.7 nM and 173 nM,–,8.49
Cc1cc(Oc2nccc3occc23)cc(C)c1-c1c(C)ncc2nccn12 [Example 162],251 nM and 446 nM,10.6,–
"Cc1cc(Oc2nccc3occc23)ccc1-c1c(C)ncnc1N1Cc2cnn(C)c2C1 [Example 164, 4-{3-methyl-4-[4-methyl-6-(1-methyl-4,6-dihydropyrrolo[3,4-c]pyrazol-5(1H)-yl)pyrimidin-5-yl]phenoxy}furo[3,2-c]pyridine, formate salt]",625 nM,15.2,–
"Cc1cc(Oc2nccc3occc23)ccc1-c1c(C)ncnc1N1CC=CC1 [Example 167, 4-{4-[4-(2,5-dihydro-1H-pyrrol-1-yl)-6-methylpyrimidin-5-yl]-3-methylphenoxy}furo[3,2-c]pyridine, trifluoroacetate salt]",354 nM,24.4,–
"COc1ccc2cnccc2c1-c1ccc(Oc2nccc3occc23)cc1 [Example 168, 5-[4-(furo[3,2-c]pyridin-4-yloxy)phenyl]-6-methoxyisoquinoline, trifluoroacetate salt]",458 nM,28.6,–
"Clc1cc(Oc2nccc3occc23)ccc1-c1cncc2nccn12 [Example 170, 5-[2-chloro-4-(furo[3,2-c]pyridin-4-yloxy)phenyl]imidazo[1,2-a]pyrazine]",657 nM,30,–
"COc1cc(Oc2nccc3occc23)ccc1-c1c(C)ncc2nccn12 [Example 173, 5-[4-(furo[3,2-c]pyridin-4-yloxy)-2-methoxyphenyl]-6-methylimidazo[1,2-a]pyrazine]",564 nM,36.8,–
"Cc1cc(Oc2nccc3occc23)ccc1-c1cccc2nccn12 [Example 174, 4-[4-(imidazo[1,2-a]pyridin-5-yl)-3-methylphenoxy]furo[3,2-c]pyridine]",200 nM,–,37.9
"Cc1cc(Oc2nccc3occc23)ccc1-c1c(C)ncnc1N1Cc2cncnc2C1 [Example 175, 6-{5-[4-(furo[3,2-c]pyridin-4-yloxy)-2-methylphenyl]-6-methylpyrimidin-4-yl}-6,7-dihydro-5H-pyrrolo[3,4-d]pyrimidine, formate salt]",475 nM,41.4,–
"Cc1cc(Oc2nccc3occc23)ccc1-c1c(C)ccnc1C#N [Example 176, 3-[4-(furo[3,2-c]pyridin-4-yloxy)-2-methylphenyl]-4-methylpyridine-2-carbonitrile]",780 nM,44.2,–
"Cc1cc(Oc2nccc3occc23)ccc1-c1c(C)ncnc1N1CCCC1 [Example 178, 4-{3-methyl-4-[4-methyl-6-(pyrrolidin-1-yl)pyrimidin-5-yl]phenoxy}furo[3,2-c]pyridine, trifluoroacetate salt]",1160 nM,46.4,–
"Cc1cc(Oc2nccc3occc23)ccc1-c1c(C)ncnc1N1CCC(CO)C1 (stereo not shown) [Example 179, (1-{5-[4-(furo[3,2-c]pyridin-4-yloxy)-2-methylphenyl]-6-methylpyrimidin-4-yl}pyrrolidin-3-yl)methanol, formate salt]",921 nM,47.2,–
"COc1cc(Oc2nccc3occc23)ccc1-c1cccnc1C [Example 181, 4-[3-methoxy-4-(2-methylpyridin-3-yl)phenoxy]furo[3,2-c]pyridine]",803 nM,53.1,–
"CCCc1noc(COc2cc(Oc3nccc4occc34)ccc2-c2nccnc2C)n1 [Example 182, 4-{4-(3-methylpyrazin-2-yl)-3-[(3-propyl-1,2,4-oxadiazol-5-yl)methoxy]phenoxy}furo[3,2-c]pyridine, formate salt]",641 nM,58,–
"Cc1ncccc1-c1ccc(Oc2nccc3occc23)cc1 [Example 184, 4-[4-(2-methylpyridin-3-yl)phenoxy]furo[3,2-c]pyridine]",881 nM,63.3,–
"Cc1cc(Oc2nccc3occc23)ccc1-c1c(C)ncnc1N1CC[C@@H](F)C1 [Example 185, 4-(4-{4-[(3R)-3-fluoropyrrolidin-1-yl]-6-methylpyrimidin-5-yl}-3-methylphenoxy)furo[3,2-c]pyridine, trifluoroacetate salt]",1160 nM,64.2,–
"Cc1noc(C)c1COc1cc(Oc2nccc3occc23)ccc1-c1cccc2nccn12 [Example 186, 4-{3-[(3,5-dimethyl-1,2-oxazol-4-yl)methoxy]-4-(imidazo[1,2-a]pyridin-5-yl)phenoxy}furo[3,2-c]pyridine, trifluoroacetate salt]",1020 nM,64.6,–

# Continued, values first:
EC50 (D1 [1]),Ki (D1 [2]; [3]) [nM],Ki (D1 [2]; [4]) [nM],SMILES
1010 nM,138,–,"Cc1cc(Sc2nccc3occc23)ccc1-c1c(C)ncnc1C [Example 155, 4-{[4-(4,6-dimethylpyrimidin-5-yl)-3-methylphenyl]sulfanyl}furo[3,2-c]pyridine]"
> 15100 nM,1820,–,"Cc1ncnc(C)c1-c1ccc(Oc2nccc3occc23)c2c1OCO2 [Example 156, 4-{[7-(4,6-dimethylpyrimidin-5-yl)-1,3-benzodioxol-4-yl]oxy}furo[3,2-c]pyridine]"
389 nM,12.8,–,"Cc1cc(Oc2nccc3occc23)ccc1-c1c(C)ncnc1N1CC[C@H](F)C1 [Example 163, 4-(4-{4-[(3S)-3-fluoropyrrolidin-1-yl]-6-methylpyrimidin-5-yl}-3-methylphenoxy)furo[3,2-c]pyridine, formate salt]"
182 nM,15.6,–,"Cc1cc(Oc2nccc3occc23)ccc1-c1c(C)ncnc1N(C)C [Example 165, 5-[4-(furo[3,2-c]pyridin-4-yloxy)-2-methylphenyl]-N,N,6-trimethylpyrimidin-4-amine, trifluoroacetate salt]"
310 nM,22.9,–,"COc1cc(Oc2nccc3occc23)ccc1-c1cccc(=O)n1C [Example 166, 6-[4-(furo[3,2-c]pyridin-4-yloxy)-2-methoxyphenyl]-1-methylpyridin-2(1H)-one]"
150 nM,29.2,–,"COc1cc(Oc2nccc3occc23)ccc1-c1c(C)cnnc1C [Example 169, 4-[4-(3,5-dimethylpyridazin-4-yl)-3-methoxyphenoxy]furo[3,2-c]pyridine]"
487 nM,31.1,–,"COc1cnnc(C)c1-c1ccc(Oc2nccc3occc23)cc1C [Example 171, 4-[4-(5-methoxy-3-methylpyridazin-4-yl)-3-methylphenoxy]furo[3,2-c]pyridine]"
408 nM,32.7,–,"Cc1ncc2nccn2c1-c1ccc(Oc2nccc3occc23)cc1 [Example 172, 5-[4-(furo[3,2-c]pyridin-4-yloxy)phenyl]-6-methylimidazo[1,2-a]pyrazine]"
2550 nM,46.4,–,"Cc1cc(Oc2nccc3occc23)ccc1-c1nc(=O)[nH]nc1C [Example 177, 5-[4-(furo[3,2-c]pyridin-4-yloxy)-2-methylphenyl]-6-methyl-1,2,4-triazin-3(2H)-one]"
812 nM,52.9,–,"Cc1cc(Oc2nccc3occc23)ccc1-c1c(C)ncnc1N1CCC[C@H]1CO [Example 180, [(2S)-1-{5-[4-(furo[3,2-c]pyridin-4-yloxy)-2-methylphenyl]-6-methylpyrimidin-4-yl}pyrrolidin-2-yl]methanol, formate salt]"
1400 nM,62.4,–,"Cc1cc(Oc2nccc3occc23)ccc1-c1c(C)ncnc1N1Cc2cccnc2C1 [Example 183, 4-{4-[4-(5,7-dihydro-6H-pyrrolo[3,4-b]pyridin-6-yl)-6-methylpyrimidin-5-yl]-3-methylphenoxy}furo[3,2-c]pyridine, formate salt]"
984 nM,65.7,–,"Cc1cc(Oc2nccc3occc23)ccc1-c1c(C)ncnc1N1CCCC1CO (stereo not shown) [Example 187, (1-{5-[4-(furo[3,2-c]pyridin-4-yloxy)-2-methylphenyl]-6-methylpyrimidin-4-yl}pyrrolidin-2-yl)methanol, trifluoroacetate salt]"
